# PubChem BioAssay (NCI)
# “And” between values parts separate entries of the source, which are not always exact repeats. Equal values may be shown once.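 Exposure lasted 48 hours, with cells grown in 96-well plates and compounds tested at five concentrations. GI50 = concentration required for 50% inhibition of growth. TGI: total growth inhibition.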 *1 amine or outer side, *2 acyl side, *3 side chain or, on linkers, in order; H or OH if unused. Where a SMILES comes first, the peptide text is derived from it. [ ]: non-standard residue; d: D form. The star is where a group is joined. X31 = CC(=O)N(C)SCC(N[*:1])C(=O)[*:2]; X47 = CC(=O)N(C)SCC(N*)/C(O)=N\O; Cbz = O=C(OCc1ccccc1)*; Bn = c1ccc(C*)cc1; For = O=C*
# Tests used:
# Assay in all cases: NCI tumour cell line growth inhibition, 48 h
# [1] = system: SW-620 colon
# [2] = system: HS 578T breast
# [3] = system: A498 renal
# [4] = system: NCI-H23 lung
# [5] = system: RXF 393 renal
# [6] = system: KM12 colon
# [7] = system: UACC-62 melanoma
# [8] = system: CAKI-1 renal
# [9] = system: SF-539 CNS
# [10] = system: BT-549 breast
Structure (SMILES),TGI [1],TGI [2] [µM],TGI [3] [µM],TGI [4] [µM],TGI [5],TGI [6] [µM],TGI [7],TGI [8],TGI [9] [µM],TGI [10] [µM],GI50 [3] [µM],GI50 [4] [µM],GI50 [8] [µM],GI50 [10] [µM]
C=CCOC(=O)N1[C@H]2C#C/C=C\C#C[C@]3(O)C(=O)C[C@H](C)[C@]24O[C@]43C2=CC(=O)C=CC21OC (stereo partly specified),> 100 µM,> 100,38,> 100,47.7 µM,67.7,> 100 µM,> 100 µM,45.8,–,–,–,–,–
O=S(=O)(O)c1c(Cl)cc(O)c2ncccc12,> 100 µM,–,> 100,> 100,> 100 µM,> 100,> 100 µM,> 100 µM,> 100,> 100,–,–,–,–
CC[C@]1(O)C[C@H]2CN(CCc3c([nH]c4ccccc34)[C@@](C(=O)OC)(c3cc4c(cc3OC)N(C=O)[C@H]3[C@@](O)(C(=O)OC)[C@H](OC(C)=O)[C@]5(CC)C=CCN6CC[C@]43[C@@H]65)C2)C1,141 µM and 18 µM,–,–,–,17.5 µM and 74.1 µM,–,38.4 µM and 75.1 µM,9.22 µM and 10.8 µM and 77.2 µM,–,–,0.00192,< 0.001,1.95,–
COc1cc(C=O)ccc1Oc1nnnn1-c1ccccc1,> 100 µM,> 100,–,> 100,> 100 µM,> 100,–,85.3 µM,–,> 100,–,–,–,–
COc1ccc(/C=C2\CCC(C)C3=C(c4ccc(OC)c(OC)c4)C(C#N)=C(N)OC32)cc1OC (stereo unspecified),> 100 µM,> 100,51.9,13.6,3.99 µM,66.5,7.34 µM,> 100 µM,–,24.5,–,–,–,–
CS(=O)(=O)c1ccc(/C=N/NC(N)=S)cc1,> 100 µM,> 100,> 100,> 100,> 100 µM,> 100,> 100 µM,> 100 µM,–,> 100,–,–,–,–
C=CCn1c(=O)c2ccccc2[n+]2c(C)c(C(=O)OCC)sc12,> 100 µM,> 100,–,> 100,> 100 µM,> 100,> 100 µM,> 100 µM,> 100,> 100,–,–,–,–
O=c1c2cc(-c3ccccc3)sc2nc2n1N=C(c1ccccc1)CS2,> 100 µM,49.4,71.9,> 100,–,> 100,31.7 µM,34.3 µM,89.1,46.7,–,–,–,–
COc1ccc(/C=C2\CCCC(CN(C)C)C2=O)cc1 (stereo unspecified),2.39 µM,10.9,30.4,13.9,–,2.75,4.13 µM,3.15 µM,31.1,3.9,–,–,–,–
COc1ccc(C2=CC(c3ccccc3)n3nnnc3N2)cc1 (stereo unspecified),> 100 µM,> 100,–,> 100,> 100 µM,> 100,> 100 µM,> 100 µM,> 100,–,–,–,–,–
CC1CC(C)C(O)C(C2CC(CC(=O)NC3CCCCC3)CC(=O)O2)C1 (stereo unspecified),> 100 µM,> 100,> 100,> 100,> 100 µM,> 100,–,> 100 µM,> 100,–,–,–,–,–
O=C(O)c1cc2ccccc2c(N=Nc2ccccc2)c1O,> 100 µM,> 100,> 100,56.1,72.5 µM,36.4,35.2 µM,84.2 µM,–,45.1,–,–,–,–
CC1(C)CCC[C@@]2(C)C1CCC1(C)C(CCc3ccoc3)/C(=C/OS(=O)(=O)O)CCC12 (stereo partly specified) (tested in a mixture with another compound),> 100 µM,–,> 100,> 100,> 100 µM,> 100,> 100 µM,> 100 µM,> 100,–,–,–,–,–
Oc1ccc(-c2csc(NNC3=NC/C(=C/c4ccc5c(c4)OCO5)S3)n2)cc1O,> 100 µM,–,–,47.7,–,> 100,–,90.7 µM,> 100,–,–,–,–,–
ClCCCN(CCCCl)c1ccc(C=Nc2cccc(Cl)c2)cc1,> 100 µM,71.8,–,53.5,> 52.7 µM,> 80.6,15.4 µM,11.8 µM,> 100,> 100,–,–,–,71.2
CCC(C)n1c(C)nc2c1C(=O)c1ccccc1C2=O (stereo unspecified),> 100 µM,–,–,> 100,> 100 µM,> 100,> 100 µM,–,> 100,–,–,–,–,–
O=C(Nc1nnc(-c2ccccc2)o1)C(SC(=S)N1CCCCC1)c1ccccc1 (stereo unspecified),> 100 µM,> 100,73.9,30.7,> 100 µM,> 100,–,77.8 µM,71.3,39.3,–,–,–,–
CCC1=NC(N/N=C/c2ccco2)=N/C1=C\c1ccccc1O,> 100 µM,> 100,> 100,> 100,> 100 µM,> 100,53.6 µM,> 100 µM,–,> 100,–,–,–,–
Cc1ccccc1C(=O)c1c(O)c2c(c(O)c1Br)CCCC2,34.1 µM,–,43.7,58.4,33.7 µM,30.9,29 µM,35.9 µM,33.4,–,–,–,–,–
C/C=C/[C@H]1O[C@@](O)([C@@H](C)[C@H](O)[C@H](C)[C@H]2OC(=O)/C(OC)=C/C(C)=C/[C@@H](C)[C@@H](O)[C@@H](CC)[C@@H](O)[C@H](C)C/C(C)=C/C=C/[C@@H]2OC)C[C@H](OC2CC(O)C(O)C(C)O2)[C@@H]1C (stereo partly specified),10.4 µM,17.3,12.2,17.5,23.2 µM,12,10.3 µM,11.9 µM,–,14.1,–,–,–,–
CCNC(C)Cc1ccccc1 (stereo unspecified),> 100 µM,–,> 100,> 100,> 100 µM,> 100,> 100 µM,> 100 µM,> 100,–,–,–,–,–
CC(=O)N(C)SCC(NC(=O)C(Cc1ccccc1)NC(=O)OCc1ccccc1)C(=O)NC(Cc1ccccc1)C(=O)NC(Cc1cn(C=O)c2ccccc12)C(=O)NC(CCCCNC(=O)OCc1ccccc1)C(=O)NC(C(=O)NC(CSN(C)C(C)=O)/C(O)=N\O)C(C)OCc1ccccc1 (stereo unspecified) (Cbz-F[X31]FW(For)K(Cbz)T(Bn)-X47; configuration not given here),> 100 µM,> 100,–,> 100,> 100 µM,> 100,> 100 µM,–,> 100,> 100,–,–,–,–
COc1cc(Cc2cc3c(c(C(=O)O)c2Br)OCO3)cc(OC)c1OC,> 100 µM,> 100,> 100,> 100,–,> 100,> 100 µM,> 100 µM,91.1,> 100,–,–,–,–
